Test results taken from patent US8952157B2, “Apoptosis-inducing agents for the treatment of cancer and immune and autoimmune diseases” (AbbVie Inc., priority 2008, dated 2015).

Target: GST-Bcl-2 (Homo sapiens (Human), UniProt P10415)
Experiment: Time Resolved-Fluorescence Resonance Energy Transfer (TR-FRET) Bcl-2 binding assay
Settings: GST-Bcl-2 1 nM, F-Bak peptide probe 100 nM, Tb-anti-GST antibody 1 nM; Ki by Wang's equation
Procedure, shortened: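 Ki values derived from TR-FRET displacement of F-Bak peptide from GST-Bcl-2, detected with Tb-labelled anti-GST antibody (ex 340, em 520/495 nm). Compound dilution series started at 50 μM (2× starting concentration); room-temperature incubation 3 hours.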

GST-Bcl-2, sequence (P10415 whole entry): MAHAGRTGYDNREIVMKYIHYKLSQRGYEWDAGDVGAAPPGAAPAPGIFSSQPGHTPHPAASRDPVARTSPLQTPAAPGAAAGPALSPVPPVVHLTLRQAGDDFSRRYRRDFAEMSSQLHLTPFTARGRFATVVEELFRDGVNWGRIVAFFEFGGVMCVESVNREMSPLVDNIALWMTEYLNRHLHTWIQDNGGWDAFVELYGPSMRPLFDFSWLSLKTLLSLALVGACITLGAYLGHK

CN(C)CCCNc1ccc(S(=O)(=O)NC(=O)c2ccc(N3CCN(CC4=C(c5ccc(Cl)cc5)CC(C)(C)CC4)CC3)cc2Oc2cccc3c2c(CN2CCN(C)CC2)cn3CN2CCN(C)CC2)cc1[N+](=O)[O-] [Example 212, 2-({1,3-bis[(4-methylpiperazin-1-yl)methyl]-1H-indol-4-yl}oxy)-4-(4-{[2-(4-chlorophenyl)-4,4-dimethylcyclohex-1-en-1-yl]methyl}piperazin-1-yl)-N-[(4-{[3-(dimethylamino)propyl]amino}-3-nitrophenyl)sulfonyl]benzamide]
Ki: 0.375 nM

CC1(C)CCC(CN2CCN(c3ccc(C(=O)NS(=O)(=O)c4ccc(NC5CCN(C6CCOCC6)CC5)c([N+](=O)[O-])c4)c(Oc4cc(F)cc5[nH]ccc45)c3)CC2)=C(c2ccc(Cl)cc2)C1 [Example 210, 4-(4-{[2-(4-chlorophenyl)-4,4-dimethylcyclohex-1-en-1-yl]methyl}piperazin-1-yl)-2-[(6-fluoro-1H-indol-4-yl)oxy]-N-({3-nitro-4-[(1-tetrahydro-2H-pyran-4-ylpiperidin-4-yl)amino]phenyl}sulfonyl)benzamide]
Ki: 0.02 nM

CC1(C)CCC(CN2CCN(c3ccc(C(=O)NS(=O)(=O)c4ccc(NC5CCN(C6CCOCC6)CC5)c([N+](=O)[O-])c4)c(Oc4ccc(N)nc4)c3)CC2)=C(c2ccc(Cl)cc2)C1 [Example 261, 2-[(6-aminopyridin-3-yl)oxy]-4-(4-{[2-(4-chlorophenyl)-4,4-dimethylcyclohex-1-en-1-yl]methyl}piperazin-1-yl)-N-({3-nitro-4-[(1-tetrahydro-2H-pyran-4-ylpiperidin-4-yl)amino]phenyl}sulfonyl)benzamide]
Ki: 0.186 nM

CC1(C)CCC(CN2CCN(c3ccc(C(=O)NS(=O)(=O)c4ccc(NC5CCN(C6CCOCC6)CC5)c([N+](=O)[O-])c4)c(Oc4cc5cc[nH]c5cc4Cl)c3)CC2)=C(c2ccc(Cl)cc2)C1 [Example 242, 2-[(6-chloro-1H-indol-5-yl)oxy]-4-(4-{[2-(4-chlorophenyl)-4,4-dimethylcyclohex-1-en-1-yl]methyl}piperazin-1-yl)-N-({3-nitro-4-[(1-tetrahydro-2H-pyran-4-ylpiperidin-4-yl)amino]phenyl}sulfonyl)benzamide]
Ki: 0.092 nM

CC1(C)CCC(CN2CCN(c3ccc(C(=O)NS(=O)(=O)c4ccc(NCC5CCOCC5)c([N+](=O)[O-])c4)c(Oc4cccc(Cl)c4)c3)CC2)=C(c2ccc(Cl)cc2)C1 [Example 246, 2-(3-chlorophenoxy)-4-(4-{[2-(4-chlorophenyl)-4,4-dimethylcyclohex-1-en-1-yl]methyl}piperazin-1-yl)-N-({3-nitro-4-[(tetrahydro-2H-pyran-4-ylmethyl)amino]phenyl}sulfonyl)benzamide]
Ki: 0.065 nM

CC1(C)CCC(CN2CCN(c3ccc(C(=O)NS(=O)(=O)c4ccc(OCC5(F)CCOCC5)c([N+](=O)[O-])c4)c(Oc4cnc(N)c(Br)c4)c3)CC2)=C(c2ccc(Cl)cc2)C1 [Example 360, 2-[(6-amino-5-bromopyridin-3-yl)oxy]-4-(4-{[2-(4-chlorophenyl)-4,4-dimethylcyclohex-1-en-1-yl]methyl}piperazin-1-yl)-N-({4-[(4-fluorotetrahydro-2H-pyran-4-yl)methoxy]-3-nitrophenyl}sulfonyl)benzamide]
Ki: 0.05 nM

CN1CCC(Nc2ccc(S(=O)(=O)NC(=O)c3ccc(N4CCN(CC5=C(c6ccc(Cl)cc6)CC(C)(C)CC5)CC4)cc3Oc3cccc(Br)c3)cc2[N+](=O)[O-])CC1 [Example 46, 2-(3-bromophenoxy)-4-(4-((2-(4-chlorophenyl)-4,4-dimethylcyclohex-1-en-1-yl)methyl)piperazin-1-yl)-N-((4-((1-methylpiperidin-4-yl)amino)-3-nitrophenyl)sulfonyl)benzamide]
Ki: 0.047 nM

CC1(C)CCC(CN2CCN(c3ccc(C(=O)NS(=O)(=O)c4ccc(NC5CCN(C6CC6)CC5)c([N+](=O)[O-])c4)c(Oc4cccc(F)c4)c3)CC2)=C(c2ccc(Cl)cc2)C1 [Example 132, 4-(4-{[2-(4-chlorophenyl)-4,4-dimethylcyclohex-1-en-1-yl]methyl}piperazin-1-yl)-N-({4-[(1-cyclopropylpiperidin-4-yl)amino]-3-nitrophenyl}sulfonyl)-2-(3-fluorophenoxy)benzamide]
Ki: 0.211 nM

CN1CCC(O)(CNc2ccc(S(=O)(=O)NC(=O)c3ccc(N4CCN(CC5=C(c6ccc(Cl)cc6)CC(C)(C)CC5)CC4)cc3Oc3cccc(F)c3)cc2[N+](=O)[O-])CC1 [Example 198, 4-(4-{[2-(4-chlorophenyl)-4,4-dimethylcyclohex-1-en-1-yl]methyl}piperazin-1-yl)-2-(3-fluorophenoxy)-N-[(4-{[(4-hydroxy-1-methylpiperidin-4-yl)methyl]amino}-3-nitrophenyl)sulfonyl]benzamide]
Ki: < 0.01 nM

CC1(C)CCC(CN2CCN(c3ccc(C(=O)NS(=O)(=O)c4ccc(NN5CCOCC5)c([N+](=O)[O-])c4)c(Oc4cccc(Cl)c4)c3)CC2)=C(c2ccc(Cl)cc2)C1 [Example 253, 2-(3-chlorophenoxy)-4-(4-{[2-(4-chlorophenyl)-4,4-dimethylcyclohex-1-en-1-yl]methyl}piperazin-1-yl)-N-{[4-(morpholin-4-ylamino)-3-nitrophenyl]sulfonyl}benzamide]
Ki: 0.05 nM

O=C(NS(=O)(=O)c1ccc(NCCCN2CCOCC2)c([N+](=O)[O-])c1)c1ccc(N2CCN(Cc3ccccc3-c3ccc(Cl)cc3)CC2)cc1Oc1ccc(-c2ccncc2)cc1 [Example 99, 4-(4-((4′-chloro-1,1′-biphenyl-2-yl)methyl)piperazin-1-yl)-N-((4-((3-morpholin-4-ylpropyl)amino)-3-nitrophenyl)sulfonyl)-2-(4-pyridin-4-ylphenoxy)benzamide]
Ki: 71.4 nM

CN(C)C(=O)COc1ccc(Oc2cc(N3CCN(Cc4ccccc4-c4ccc(Cl)cc4)CC3)ccc2C(=O)NS(=O)(=O)c2ccc(NCC3CCOCC3)c([N+](=O)[O-])c2)cc1 [Example 101, 4-(4-((4′-chloro-1,1′-biphenyl-2-yl)methyl)piperazin-1-yl)-2-(4-(2-(dimethylamino)-2-oxoethoxy)phenoxy)-N-((3-nitro-4-((tetrahydro-2H-pyran-4-ylmethyl)amino)phenyl)sulfonyl)benzamide]
Ki: 670 nM

CC1(C)CCC(CN2CCN(c3ccc(C(=O)NS(=O)(=O)c4ccc(NCC5CCOCC5)c([N+](=O)[O-])c4)c(Oc4cc5cc[nH]c5c(F)c4F)c3)CC2)=C(c2ccc(Cl)cc2)C1 [Example 243, 4-(4-{[2-(4-chlorophenyl)-4,4-dimethylcyclohex-1-en-1-yl]methyl}piperazin-1-yl)-2-[(6,7-difluoro-1H-indol-5-yl)oxy]-N-({3-nitro-4-[(tetrahydro-2H-pyran-4-ylmethyl)amino]phenyl}sulfonyl)benzamide]
Ki: 0.069 nM

CN1CCC(Nc2ccc(S(=O)(=O)NC(=O)c3ccc(N4CCN(CC5=C(c6ccc(Cl)cc6)CC(C)(C)OC5)CC4)cc3Oc3ccccc3Cl)cc2[N+](=O)[O-])CC1 [Example 38, 2-(2-chlorophenoxy)-4-(4-((4-(4-chlorophenyl)-6,6-dimethyl-5,6-dihydro-2H-pyran-3-yl)methyl)piperazin-1-yl)-N-((4-((1-methylpiperidin-4-yl)amino)-3-nitrophenyl)sulfonyl)benzamide]
Ki: 0.013 nM

CC1(C)CCC(CN2CCN(c3ccc(C(=O)NS(=O)(=O)c4ccc(NCC5CCOCC5)c([N+](=O)[O-])c4)c(Oc4cnc(N)c(C(N)=O)c4)c3)CC2)=C(c2ccc(Cl)cc2)C1 [Example 351, 2-amino-5-(5-(4-{[2-(4-chlorophenyl)-4,4-dimethylcyclohex-1-en-1-yl]methyl}piperazin-1-yl)-2-{[({3-nitro-4-[(tetrahydro-2H-pyran-4-ylmethyl)amino]phenyl}sulfonyl)amino]carbonyl}phenoxy)nicotinamide]
Ki: 2.84 nM

CC1(C)CCC(CN2CCN(c3ccc(C(=O)NS(=O)(=O)c4ccc(NCC5COCCO5)c([N+](=O)[O-])c4)c(Oc4cnc(N)c(Br)c4)c3)CC2)=C(c2ccc(Cl)cc2)C1 (centres unmarked) [Example 361, 2-[(6-amino-5-bromopyridin-3-yl)oxy]-4-(4-{[2-(4-chlorophenyl)-4,4-dimethylcyclohex-1-en-1-yl]methyl}piperazin-1-yl)-N-({4-[(1,4-dioxan-2-ylmethyl)amino]-3-nitrophenyl}sulfonyl)benzamide]
Ki: 0.015 nM

CN1CCC(Nc2ccc(S(=O)(=O)NC(=O)c3ccc(N4CCN(CC5=C(c6ccc(Cl)cc6)CC(C)(C)CC5)CC4)cc3Oc3cccc(-c4ccc[nH]4)c3)cc2[N+](=O)[O-])CC1 [Example 197, 4-(4-{[2-(4-chlorophenyl)-4,4-dimethylcyclohex-1-en-1-yl]methyl}piperazin-1-yl)-N-({4-[(1-methylpiperidin-4-yl)amino]-3-nitrophenyl}sulfonyl)-2-[3-(1H-pyrrol-2-yl)phenoxy]benzamide]
Ki: 0.22 nM

CN1CCC(Nc2ccc(S(=O)(=O)NC(=O)c3ccc(N4CCN(CC5=C(c6ccc(Cl)cc6)CC(C)(C)CC5)CC4)cc3Oc3ccccc3Cl)cc2[N+](=O)[O-])CC1 [Example 34, 2-(2-chlorophenoxy)-4-(4-((2-(4-chlorophenyl)-4,4-dimethylcyclohex-1-en-1-yl)methyl)piperazin-1-yl)-N-((4-((1-methylpiperidin-4-yl)amino)-3-nitrophenyl)sulfonyl)benzamide]
Ki: 0.049 nM

CC1(C)CCC(CN2CCN(c3ccc(C(=O)NS(=O)(=O)c4ccc(NC5CCN(C6CCOCC6)CC5)c([N+](=O)[O-])c4)c(Oc4cccc(F)c4)c3)CC2)=C(c2ccc(Cl)cc2)C1 [Example 113, 4-(4-{[2-(4-chlorophenyl)-4,4-dimethylcyclohex-1-en-1-yl]methyl}piperazin-1-yl)-2-(3-fluorophenoxy)-N-({3-nitro-4-[(1-tetrahydro-2H-pyran-4-ylpiperidin-4-yl)amino]phenyl}sulfonyl)benzamide]
Ki: 0.032 nM

CC(C)N1CCC(Nc2ccc(S(=O)(=O)NC(=O)c3ccc(N4CCN(CC5=C(c6ccc(Cl)cc6)CC(C)(C)CC5)CC4)cc3Oc3ccccc3Cl)cc2[N+](=O)[O-])CC1 [Example 41, 2-(2-chlorophenoxy)-4-(4-((2-(4-chlorophenyl)-4,4-dimethylcyclohex-1-en-1-yl)methyl)piperazin-1-yl)-N-((4-((1-isopropylpiperidin-4-yl)amino)-3-nitrophenyl)sulfonyl)benzamide]
Ki: 0.027 nM
